# According to PubChem BioAssay (NCI):
#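 Tested at 5 concentrations; 48 h exposure; 96-well plates; endpoints linearly interpolated, else capped at highest concentration. Here, GI50 denotes the concentration required for 50% inhibition of growth. TGI: total growth inhibition.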
# Test system: A498 renal
# Assay: DTP human tumour cell line panel, 48 h
SMILES,TGI [µM],GI50 [µM]
O=C(c1cccs1)N(C(=S)OC12CC3CC(CC(C3)C1)C2)c1ccccc1,> 100,
C(=N\NC1=NCCN1)/c1ccc(-c2cn3cc(/C=N/NC4=NCCN4)ccc3n2)cc1,> 100,
CC1CC[C@@]2(OC1)OC1C[C@H]3[C@@H]4CC=C5CC(OC6OC(CO)C(OC7OC(CO)C(O)C(OC8OCC(O)C(O)C8O)C7OC7OC(CO)C(O)C(O)C7O)C(O)C6O)CCC5(C)[C@H]4CCC3(C)C1[C@@H]2C (some centres not stated),9.19,
Nc1ccccc1S(=O)(=O)c1ccccc1,> 100,
Cc1c(N2C(=O)CS(=O)(=O)C2c2cccc(Oc3ccccc3)c2)c(=O)n(-c2ccccc2)n1C (configuration not stated),55.9,
COc1cc2c(ccc3c4cc(OC)c(OC)cc4c[n+](C)c23)cc1O,65.8,
CNC(=O)OCc1c(CO)nc(SC)n1C,> 100,
CN(C)CC(CC1=C(CC(CN(C)C)N(C)C)CCC1)N(C)C (configuration not stated),> 100,
CCC1CN(C(=O)c2ccccc2)C(Cc2c[nH]c3ccccc23)C(=O)C1CC(=O)OC (configuration not stated),64.3,
NC(=O)c1c(NC(=O)c2ccccn2)sc2c1CCC(=O)C2,> 100,> 100
O=c1cccccc1[O-].O=c1cccccc1[O-].[O]=[U+2]=[O],45.8,25.1
COc1ccc(C(=O)/C=C/c2cccc([N+](=O)[O-])c2)c(OC)c1,> 50,11.1
CCC(C)C1=C(OC(C)=O)[N+]2([O-])Oc3ccc(-c4c(OC(C)=O)c(OC(C)=O)c(-c5ccc(OC(C)=O)cc5)c(OC(C)=O)c4OC(C)=O)cc3OC2(C(C)CC)C(=O)N1OC(C)=O (configuration not stated),> 50,
O=C(O)C1C2CCC(O2)C1C(=O)Nc1cccc2cccnc12 (configuration not stated),> 100,
COc1cccc2c1Cc1cc(-c3ccccc3)[n+](C)n1-2,> 100,
O=C(OCN1C(=O)C2C3C=CC(C2C1=O)C1C2C(=O)N(COC(=O)C4CCCN4)C(=O)C2C31)C1CCCN1 (configuration not stated),> 100,
O=C(C[n+]1ccc2ccccc2c1)c1ccc2ccc3ccccc3c2c1,18.6,
NCCCCc1cc(O)c2c(c1O)C(=O)c1ccccc1C2=O,37.2,
Cc1ccccc1C(=O)N/N=C/c1ccc(Sc2nccn2C)c([N+](=O)[O-])c1,> 100,
CCn1c(-c2ccc(N=NNc3ccc(-c4n[nH]c(=S)n4CC)cc3)cc2)n[nH]c1=S,> 100,
CC(=O)C1=C(C)N(c2ccc(C)cc2)C2(O)C=CC(=O)C3C(=O)N(c4ccccc4)C(=O)C132 (configuration not stated),39.6,
COc1ccc2c(c1)[nH]c1c(/C=C/c3ccccc3)nccc12,26.6,
Clc1cc2c(cc1Cl)CC(NCCN1CCCC1)CC2 (configuration not stated),27.4,
[N-]=[N+]=CC(=O)c1ccccc1C#CCCc1ccccc1,> 100,
CCN(CC(=O)O)C(=O)c1cccnc1,> 100,
NCCSC(c1ccccc1)c1ccccc1,62.5,
COc1nc(C#CC2(O)CCCCC2)nc(OC)n1,31.2,
C[C@H](CCC(=O)O)[C@H]1CC[C@@]2(C)[C@@H]3C(=O)C[C@H]4C(C)(C)[C@@H](O)CC[C@]4(C)[C@H]3C(=O)C[C@]12C,> 100,

# Test system: BT-549 breast
# Assay: DTP human tumour cell line panel, 48 h
SMILES,TGI [µM],GI50 [nM]
CCOC(=O)C1=NN(c2ccc(C)cc2)C2=CC(C)=NN(C)C(=S)N21,> 100,
O=C(c1cccs1)N(C(=S)OC12CC3CC(CC(C3)C1)C2)c1ccccc1,> 100,
C(=N\NC1=NCCN1)/c1ccc(-c2cn3cc(/C=N/NC4=NCCN4)ccc3n2)cc1,52.9,
CC1CC[C@@]2(OC1)OC1C[C@H]3[C@@H]4CC=C5CC(OC6OC(CO)C(OC7OC(CO)C(O)C(OC8OCC(O)C(O)C8O)C7OC7OC(CO)C(O)C(O)C7O)C(O)C6O)CCC5(C)[C@H]4CCC3(C)C1[C@@H]2C (some centres not stated),9.24,
Cc1c(N2C(=O)CS(=O)(=O)C2c2cccc(Oc3ccccc3)c2)c(=O)n(-c2ccccc2)n1C (configuration not stated),> 100,
CCC1CN(C(=O)c2ccccc2)C(Cc2c[nH]c3ccccc23)C(=O)C1CC(=O)OC (configuration not stated),> 100,
CC12CC3OC(=O)C1COC14OC5(C2C1=O)C(O)(CCC1C4CC(O)C2(O)CC=CC(=O)C12C)C(=O)OC35C (configuration not stated),> 100,
NC(=O)c1c(NC(=O)c2ccccn2)sc2c1CCC(=O)C2,> 100,2180
COc1ccc(C(=O)/C=C/c2cccc([N+](=O)[O-])c2)c(OC)c1,2.99,1120
CCOC(=O)C(NC(=O)c1ccco1)(Nc1nc2ccc(OCC)cc2s1)C(F)(F)F (configuration not stated),> 100,
O=C(O)C1C2CCC(O2)C1C(=O)Nc1cccc2cccnc12 (configuration not stated),> 100,
COc1cccc2c1Cc1cc(-c3ccccc3)[n+](C)n1-2,99.5,
O=C(C[n+]1ccc2ccccc2c1)c1ccc2ccc3ccccc3c2c1,24,
NCCCCc1cc(O)c2c(c1O)C(=O)c1ccccc1C2=O,49.9,
Cc1ccccc1C(=O)N/N=C/c1ccc(Sc2nccn2C)c([N+](=O)[O-])c1,> 100,
CCn1c(-c2ccc(N=NNc3ccc(-c4n[nH]c(=S)n4CC)cc3)cc2)n[nH]c1=S,5.73,
CC(=O)C1=C(C)N(c2ccc(C)cc2)C2(O)C=CC(=O)C3C(=O)N(c4ccccc4)C(=O)C132 (configuration not stated),39.8,
COc1ccc2c(c1)[nH]c1c(/C=C/c3ccccc3)nccc12,29.9,
Clc1cc2c(cc1Cl)CC(NCCN1CCCC1)CC2 (configuration not stated),28.8,
CCN(CC(=O)O)C(=O)c1cccnc1,> 100,
NCCSC(c1ccccc1)c1ccccc1,> 100,
COc1nc(C#CC2(O)CCCCC2)nc(OC)n1,28,
C[C@H](CCC(=O)O)[C@H]1CC[C@@]2(C)[C@@H]3C(=O)C[C@H]4C(C)(C)[C@@H](O)CC[C@]4(C)[C@H]3C(=O)C[C@]12C,> 100,

# Test system: LOX IMVI melanoma
# Assay: DTP human tumour cell line panel, 48 h
SMILES,TGI [µM],GI50 [nM]
CCOC(=O)C1=NN(c2ccc(C)cc2)C2=CC(C)=NN(C)C(=S)N21,> 100,
O=C(c1cccs1)N(C(=S)OC12CC3CC(CC(C3)C1)C2)c1ccccc1,92.9,
C(=N\NC1=NCCN1)/c1ccc(-c2cn3cc(/C=N/NC4=NCCN4)ccc3n2)cc1,> 52.5,
CC1CC[C@@]2(OC1)OC1C[C@H]3[C@@H]4CC=C5CC(OC6OC(CO)C(OC7OC(CO)C(O)C(OC8OCC(O)C(O)C8O)C7OC7OC(CO)C(O)C(O)C7O)C(O)C6O)CCC5(C)[C@H]4CCC3(C)C1[C@@H]2C (some centres not stated),8.53,
Nc1ccccc1S(=O)(=O)c1ccccc1,> 100,
Cc1c(N2C(=O)CS(=O)(=O)C2c2cccc(Oc3ccccc3)c2)c(=O)n(-c2ccccc2)n1C (configuration not stated),> 100,
COc1cc2c(ccc3c4cc(OC)c(OC)cc4c[n+](C)c23)cc1O,> 75,
CNC(=O)OCc1c(CO)nc(SC)n1C,> 100,
CN(C)CC(CC1=C(CC(CN(C)C)N(C)C)CCC1)N(C)C (configuration not stated),> 100,
CCC1CN(C(=O)c2ccccc2)C(Cc2c[nH]c3ccccc23)C(=O)C1CC(=O)OC (configuration not stated),> 100,
CC12CC3OC(=O)C1COC14OC5(C2C1=O)C(O)(CCC1C4CC(O)C2(O)CC=CC(=O)C12C)C(=O)OC35C (configuration not stated),> 100,
NC(=O)c1c(NC(=O)c2ccccn2)sc2c1CCC(=O)C2,> 100,3720
O=c1cccccc1[O-].O=c1cccccc1[O-].[O]=[U+2]=[O],95,
COc1ccc(C(=O)/C=C/c2cccc([N+](=O)[O-])c2)c(OC)c1,1.94,895
CCC(C)C1=C(OC(C)=O)[N+]2([O-])Oc3ccc(-c4c(OC(C)=O)c(OC(C)=O)c(-c5ccc(OC(C)=O)cc5)c(OC(C)=O)c4OC(C)=O)cc3OC2(C(C)CC)C(=O)N1OC(C)=O (configuration not stated),43.5,
O=C(O)C1C2CCC(O2)C1C(=O)Nc1cccc2cccnc12 (configuration not stated),> 100,
COc1cccc2c1Cc1cc(-c3ccccc3)[n+](C)n1-2,29.3,
O=C(OCN1C(=O)C2C3C=CC(C2C1=O)C1C2C(=O)N(COC(=O)C4CCCN4)C(=O)C2C31)C1CCCN1 (configuration not stated),> 64.5,
O=C(C[n+]1ccc2ccccc2c1)c1ccc2ccc3ccccc3c2c1,6.57,
